Measurements: patent US11919873B1, “1,3-benzothiazol-2-yl-N′-(benzoyloxy)ethanimidamide as an antitumor and antimicrobial compound” (priority 2023, dated 2024)

Key:
[1] = tested on: Bacillus cereus, Staphylococcus aureus, Pseudomonas aeruginosa, Escherichia coli, Aspergillus flavus, Chrysosporium keratinophilum; assay: Agar plate disc-diffusion antimicrobial test; assay type: cell-based; settings: 10 μL of 10 mg/mL in DMSO per disc, bacteria and fungi, result in words only
Description: The agar plate disc-diffusion method was applied. Sterilized filter papers (6 mm in diameter) were wetted with 10 μL of a solution of each compound to be tested, containing 10 mg/mL in DMSO, and the discs were allowed to air dry. The discs were then placed onto the surface of agar plates (nutrient agar for bacteria and Sabouraud's dextrose agar for fungi) and seeded with the test organism. Each plate contained 15 mL of the agar medium, previously seeded with 0.2 mL of the broth culture of each organism pre-grown for 18 hours. The plates were incubated at 37° C. for 48 hours, and 72 hours for fungi. The inhibition zones were measured in mm. Discs impregnated with DMSO were used as a control, and its inhibition zone was subtracted from the tested compound actual inhibition zone. In particular, the present 1,3-benzothiazol-2-yl-N′-(benzoyloxy)ethanimidamide was screened against gram positive bacteria, namely Bacillus cereus and Staphylococcus aureus, and gram-negative bacterial strains, namely Pseudomonas aeruginosa and Escherichia coli, while the antifungal activity was screened against Aspergillus flavus and Chrysosporium keratinophilum.

[2] = tested on: human prostate cancer cells (PC3); assay: Assessment of cytotoxicity by SRB assay, PC3; assay type: cell-based; settings: 72 h, 0.01 μM to 100 μM, result in words only
Description: (§1) The human prostate cancer cells (PC3) and human osteosarcoma cells (MG-63) were obtained from Nawah Scientific Inc. (Mokatam, Cairo, Egypt) and cultured in DMEM (Dulbecco's modified eagle's medium), Gibco, USA, supplemented with fetal bovine serum (FBS) at a concentration of 10% and 100 U/mL of penicillin and streptomycin (PS). The cells were incubated at 37° C. in a humidified environment that contained 5% CO2. Cells were seeded in 96-well plates as aliquots of 100 μL cell suspension and incubated in a complete media for 24 h. Afterward, cells were treated with 3-(4-chlorophenyl)-5-{[5-methyl-2-(propan-2-yl)phenoxy]methyl}-1,2,4-oxadiazole at diverse concentrations ranging from 0.01 μM to 100 μM for 72 h. Then, cells were fixed at 4° C. for one hour with 150 μL of 10% trichloroacetic acid (TCA). […] Then, 150 μL of Tris pH 10.5 (10 mM) was added, and the absorbance was measured at 540 nm using a BMG LABTECH®—FLUOstar Omega microplate reader (Ortenberg, Germany). Half maximal inhibitory concentrations (IC50) values were calculated for each experiment using GraphPad Prism 6 software. […] The inhibition was calculated using the following equation: Inhibition %=100−Average Viability The anticancer activity of 1,3-benzothiazol-2-yl-N′-(benzoyloxy)ethanimidamide was assessed against highly aggressive androgen-independent metastatic human prostate cancer cells (PC3) and osteosarcoma (MG-63) cells.

[3] = tested on: human osteosarcoma cells (MG-63); assay: Assessment of cytotoxicity by SRB assay, MG-63; assay type: cell-based; settings: 72 h, 0.01 μM to 100 μM, result in words only
Description: as §1

- melting point: 153 to 155 °C
Structure (SMILES): N/C(Cc1nc2ccccc2s1)=N\OC(=O)c1ccccc1 [1,3-benzothiazol-2-yl-N′-(benzoyloxy)ethanimidamide]
- antimicrobial activity against different microbes [1]: excellent antimicrobial activities
- antiproliferative activity against PC3 cells [2]: excellent antiproliferative activities
- antiproliferative activity against MG-63 cells [3]: excellent antiproliferative activities
